These are literature values, as cited in EP2525785B1, “SUSTAINED RELEASE TABLET FORMULATION CONTAINING ETODOLAC” (Turgut Laclari A.S., priority 2010, dated 2011).

Structures are written as SMILES.

For this data set the following is noted: below pH 3.

Regarding `CCc1cccc2c3c([nH]c12)C(CC)(CC(=O)O)OCC3` (stereo not shown) [Etodolac, 2-(1,8-diethyl-4,9-dihydro-3H-pyrano[3,4-b]indole-1-il)acetic acid], the solubility result was “low solubility”.
